Results from PubChem BioAssay AID1918943 (Molecular Pharmacology Branch, DTP, NCI, 2023).

Test system: 855422-203-R-J1-PDC complex spheroid viability
Experiment: Anticancer human tumor 855422-203-R-J1-PDC patient-derived bladder carcinoma cell line growth inhibition
Conditions: for IC50: curve of first compound; for viability, T/C: stronger effect = lower value
Method in brief: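 Multicellular complex spheroids of tumor cells with human endothelial cells (HUVEC) and mesenchymal stem cells; the LSD1 inhibitor iadademstat was combined with standard-of-care or investigational agents. Top concentration at or near clinical Cmax, half-log dilutions; final DMSO ≤0.25%.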

[1] = second compound 0.1 µM, first compound 0.00316 µM
[2] = second compound 0.1 µM, first compound 0.01 µM
[3] = second compound 0.1 µM, first compound 0.0316 µM
[4] = second compound 0.1 µM, first compound 0.1 µM
[5] = second compound 0.316 µM, first compound 0.00316 µM
[6] = second compound 0.316 µM, first compound 0.01 µM
[7] = second compound 0.316 µM, first compound 0.0316 µM
[8] = second compound 0.316 µM, first compound 0.1 µM
[9] = second compound 1 µM, first compound 0.00316 µM
[10] = second compound 1 µM, first compound 0.01 µM
[11] = second compound 1 µM, first compound 0.0316 µM
[12] = second compound 1 µM, first compound 0.1 µM
[13] = second compound 3.16 µM, first compound 0.00316 µM
[14] = second compound 3.16 µM, first compound 0.01 µM
[15] = second compound 3.16 µM, first compound 0.0316 µM
[16] = second compound 3.16 µM, first compound 0.1 µM
[17] = second compound 10 µM, first compound 0.00316 µM
[18] = second compound 10 µM, first compound 0.01 µM
[19] = second compound 10 µM, first compound 0.0316 µM
[20] = second compound 10 µM, first compound 0.1 µM
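Also: drug exposure lasted 7 days starting on day 3 after seeding.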
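For viability, T/C in this document: luminescence viability as percent of DMSO vehicle wells = 100%.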

COc1cc(Nc2ncc3c(n2)-c2ccc(Cl)cc2C(c2c(F)cccc2OC)=NC3)ccc1C(=O)O + NC1CC1c1ccc(-c2cccc(O)c2)cc1
IC50 (second compound 0.1 µM): 0.67 µM | IC50 (second compound 0.316 µM): 0.284 µM | IC50 (second compound 1 µM): 0.0897 µM | IC50 (second compound 3.16 µM): 0.275 µM | IC50 (second compound 10 µM): 0.135 µM | viability, T/C [1]: 96.4% | viability, T/C [2]: 103% | viability, T/C [3]: 84% | viability, T/C [4]: 68.6% | viability, T/C (second compound 0.1 µM, first compound 0.316 µM): 56.2% | viability, T/C (second compound 0.1 µM, first compound 1 µM): 46.5% | viability, T/C [5]: 96.9% | viability, T/C [6]: 96.4% | viability, T/C [7]: 71% | viability, T/C [8]: 61.2% | viability, T/C (second compound 0.316 µM, first compound 0.316 µM): 49.9% | viability, T/C (second compound 0.316 µM, first compound 1 µM): 44.4% | viability, T/C [9]: 82.5% | viability, T/C [10]: 93.4% | viability, T/C [11]: 69.5% | viability, T/C [12]: 51.8% | viability, T/C (second compound 1 µM, first compound 0.316 µM): 45.8% | viability, T/C (second compound 1 µM, first compound 1 µM): 46.1% | viability, T/C [13]: 88.3% | viability, T/C [14]: 95.5% | viability, T/C [15]: 69.9% | viability, T/C [16]: 61.4% | viability, T/C (second compound 3.16 µM, first compound 0.316 µM): 50% | viability, T/C (second compound 3.16 µM, first compound 1 µM): 43.4% | viability, T/C [17]: 85.7% | viability, T/C [18]: 94.1% | viability, T/C [19]: 63.1% | viability, T/C [20]: 56.8% | viability, T/C (second compound 10 µM, first compound 0.316 µM): 44.2% | viability, T/C (second compound 10 µM, first compound 1 µM): 39.5%

Cn1ncnc1C1c2n[nH]c(=O)c3cc(F)cc(c23)NC1c1ccc(F)cc1 (stereo not given) + NC1CC1c1ccc(-c2cccc(O)c2)cc1
IC50 (second compound 0.1 µM): > 0.1 µM | IC50 (second compound 0.316 µM): > 0.1 µM | IC50 (second compound 1 µM): > 0.1 µM | IC50 (second compound 3.16 µM): > 0.1 µM | IC50 (second compound 10 µM): > 0.1 µM | viability, T/C (second compound 0.1 µM, first compound 0.000316 µM): 91.5% | viability, T/C (second compound 0.1 µM, first compound 0.001 µM): 75.1% | viability, T/C [1]: 74.4% | viability, T/C [2]: 77.3% | viability, T/C [3]: 80.9% | viability, T/C [4]: 86.2% | viability, T/C (second compound 0.316 µM, first compound 0.000316 µM): 89.2% | viability, T/C (second compound 0.316 µM, first compound 0.001 µM): 76.7% | viability, T/C [5]: 76.1% | viability, T/C [6]: 84.2% | viability, T/C [7]: 87.6% | viability, T/C [8]: 91.9% | viability, T/C (second compound 1 µM, first compound 0.000316 µM): 95.8% | viability, T/C (second compound 1 µM, first compound 0.001 µM): 97.3% | viability, T/C [9]: 96.5% | viability, T/C [10]: 102% | viability, T/C [11]: 82.7% | viability, T/C [12]: 90.5% | viability, T/C (second compound 3.16 µM, first compound 0.000316 µM): 102% | viability, T/C (second compound 3.16 µM, first compound 0.001 µM): 106% | viability, T/C [13]: 103% | viability, T/C [14]: 109% | viability, T/C [15]: 94.1% | viability, T/C [16]: 97.2% | viability, T/C (second compound 10 µM, first compound 0.000316 µM): 106% | viability, T/C (second compound 10 µM, first compound 0.001 µM): 110% | viability, T/C [17]: 97.6% | viability, T/C [18]: 109% | viability, T/C [19]: 100% | viability, T/C [20]: 102%

NS(=O)(=O)OCC1CC(n2ccc3c(NC4CCc5ccccc54)ncnc32)CC1O (stereo not given) + NC1CC1c1ccc(-c2cccc(O)c2)cc1
IC50 (second compound 0.1 µM): 0.802 µM | IC50 (second compound 0.316 µM): 0.848 µM | IC50 (second compound 1 µM): 1.14 µM | IC50 (second compound 3.16 µM): 0.769 µM | IC50 (second compound 10 µM): 0.532 µM | viability, T/C (second compound 0.1 µM, first compound 0.00949 µM): 102% | viability, T/C (second compound 0.1 µM, first compound 0.03 µM): 112% | viability, T/C (second compound 0.1 µM, first compound 0.0949 µM): 115% | viability, T/C (second compound 0.1 µM, first compound 0.3 µM): 105% | viability, T/C (second compound 0.1 µM, first compound 0.949 µM): 40.5% | viability, T/C (second compound 0.1 µM, first compound 3 µM): 12.2% | viability, T/C (second compound 0.316 µM, first compound 0.00949 µM): 100% | viability, T/C (second compound 0.316 µM, first compound 0.03 µM): 113% | viability, T/C (second compound 0.316 µM, first compound 0.0949 µM): 114% | viability, T/C (second compound 0.316 µM, first compound 0.3 µM): 105% | viability, T/C (second compound 0.316 µM, first compound 0.949 µM): 44.1% | viability, T/C (second compound 0.316 µM, first compound 3 µM): 13.4% | viability, T/C (second compound 1 µM, first compound 0.00949 µM): 108% | viability, T/C (second compound 1 µM, first compound 0.03 µM): 115% | viability, T/C (second compound 1 µM, first compound 0.0949 µM): 98.7% | viability, T/C (second compound 1 µM, first compound 0.3 µM): 102% | viability, T/C (second compound 1 µM, first compound 0.949 µM): 56.8% | viability, T/C (second compound 1 µM, first compound 3 µM): 13.9% | viability, T/C (second compound 3.16 µM, first compound 0.00949 µM): 99.7% | viability, T/C (second compound 3.16 µM, first compound 0.03 µM): 114% | viability, T/C (second compound 3.16 µM, first compound 0.0949 µM): 102% | viability, T/C (second compound 3.16 µM, first compound 0.3 µM): 105% | viability, T/C (second compound 3.16 µM, first compound 0.949 µM): 37.7% | viability, T/C (second compound 3.16 µM, first compound 3 µM): 14.1% | viability, T/C (second compound 10 µM, first compound 0.00949 µM): 95.4% | viability, T/C (second compound 10 µM, first compound 0.03 µM): 99.5% | viability, T/C (second compound 10 µM, first compound 0.0949 µM): 93.8% | viability, T/C (second compound 10 µM, first compound 0.3 µM): 69% | viability, T/C (second compound 10 µM, first compound 0.949 µM): 30.5% | viability, T/C (second compound 10 µM, first compound 3 µM): 10.9%
